Results taken from patent US20230398130A1, “METHODS AND COMPOSITIONS FOR DIFFERENTIATING STEM CELLS” (Massachusetts Institute of Technology, priority 2020, published 2023).
Where a name gives a salt, the structure may show the parent alone.

How the values were obtained:
ISC-enriched organoids [1] = test: Primary screen, 384-well 2.5-D organoid differentiation (ENR+CD, 6 days): basal lysozyme secretion (LYZ.NS); assay type: cell-based, murine; conditions: for Dose.FC.LYZ.NS: FC vs plate median; for SSMD.LYZ.NS: strictly standardized mean difference
Excerpt: (§1) High-throughput screening.

ISC-enriched organoids [2] = test: Primary screen, 384-well 2.5-D organoid differentiation (ENR+CD, 6 days): carbachol-induced lysozyme secretion (LYZ.S); assay type: cell-based, murine; conditions: primary screen; for Dose.FC.LYZ.S: FC vs plate median; for Z.LYZ.S: standard z score; for SSMD.LYZ.S: strictly standardized mean difference
Excerpt: as §1

ISC-enriched organoids [3] = test: Primary screen, 384-well 2.5-D organoid differentiation (ENR+CD, 6 days, Target Selective Inhibitor Library, vs whole-plate median): ATP (CellTiter-Glo 3D, CTG); conditions: for Dose.FC.CTG: FC vs plate median; for SSMD.CTG: strictly standardized mean difference
[4] = primary screen, dose 0.08 uM, ENR+CD 6 days
[5] = primary screen, dose 0.08 uM, standard z score of FC
[6] = primary screen, dose 0.40 uM, ENR+CD 6 days
[7] = primary screen, dose 0.40 uM, standard z score of FC
[8] = primary screen, dose 2.00 uM, ENR+CD 6 days
[9] = primary screen, dose 2.00 uM, standard z score of FC
[10] = primary screen, dose 10.00 uM, ENR+CD 6 days
[11] = primary screen, dose 10.00 uM, standard z score of FC
[12] = Dose 0.08 uM, standard z score of FC
[13] = Dose 0.40 uM, standard z score of FC
[14] = Dose 2.00 uM, standard z score of FC
[15] = Dose 10.00 uM, standard z score of FC
[16] = primary screen, 1st of the 4 dose lines of the treatment (dose not given)
[17] = primary screen, 2nd of the 4 dose lines of the treatment (dose not given)
[18] = primary screen, 3rd of the 4 dose lines of the treatment (dose not given)
[19] = primary screen, 4th of the 4 dose lines of the treatment (dose not given)
[20] = 1st of the 4 dose lines of the treatment (dose not given)
[21] = 2nd of the 4 dose lines of the treatment (dose not given)
[22] = 3rd of the 4 dose lines of the treatment (dose not given)
[23] = 4th of the 4 dose lines of the treatment (dose not given)
[24] = Dose 0.08 uM, primary screen, standard z score
[25] = Dose 0.40 uM, primary screen, standard z score
[26] = Dose 2.00 uM, primary screen, standard z score
[27] = Dose 10.00 uM, primary screen, standard z score

SMILES: CCN1CCN(c2ccc(Nc3cc(N(C)C(=O)Nc4c(Cl)c(OC)cc(OC)c4Cl)ncn3)cc2)CC1 [BGJ398 (NVP-BGJ398)]
- Dose.FC.LYZ.NS (ISC-enriched organoids [1]; [4]): −0.002 log 2 fold change
- Z.LYZ.NS (ISC-enriched organoids [1]; [5]): −0.017
- Dose.FC.LYZ.NS (ISC-enriched organoids [1]; [6]): −0.060 log 2 fold change
- Z.LYZ.NS (ISC-enriched organoids [1]; [7]): −0.520
- Dose.FC.LYZ.NS (ISC-enriched organoids [1]; [8]): −0.052 log 2 fold change
- Z.LYZ.NS (ISC-enriched organoids [1]; [9]): −0.450
- Dose.FC.LYZ.NS (ISC-enriched organoids [1]; [10]): −0.269 log 2 fold change
- Z.LYZ.NS (ISC-enriched organoids [1]; [11]): −2.345
- Dose.FC.LYZ.S (ISC-enriched organoids [2]; dose 0.08 uM, ENR+CD 6 days): −0.036 log 2 fold change
- Dose.FC.LYZ.S (ISC-enriched organoids [2]; dose 0.40 uM, ENR+CD 6 days): 0.002 log 2 fold change
- Dose.FC.LYZ.S (ISC-enriched organoids [2]; dose 2.00 uM, ENR+CD 6 days): −0.062 log 2 fold change
- Dose.FC.LYZ.S (ISC-enriched organoids [2]; dose 10.00 uM, ENR+CD 6 days): −0.350 log 2 fold change
- Dose.FC.CTG (ISC-enriched organoids [3]; [4]): −0.054 log 2 fold change
- Z.CTG (ISC-enriched organoids [3]; [5]): −0.128
- Dose.FC.CTG (ISC-enriched organoids [3]; [6]): 0.026 log 2 fold change
- Z.CTG (ISC-enriched organoids [3]; [7]): 0.063
- Dose.FC.CTG (ISC-enriched organoids [3]; [8]): −0.185 log 2 fold change
- Z.CTG (ISC-enriched organoids [3]; [9]): −0.442
- Dose.FC.CTG (ISC-enriched organoids [3]; [10]): −1.500 log 2 fold change
- Z.CTG (ISC-enriched organoids [3]; [11]): −3.583

SMILES: Cc1[nH]c2ccccc2c1CCNCc1ccc(/C=C/C(=O)NO)cc1 [Panobinostat (LBH589)]
- Dose.FC.LYZ.NS (ISC-enriched organoids [1]; Dose 0.08 uM, primary screen): 0.002 log 2 fold change
- Z.LYZ.NS (ISC-enriched organoids [1]; [12]): 0.014
- Dose.FC.LYZ.NS (ISC-enriched organoids [1]; Dose 0.40 uM, primary screen): −0.027 log 2 fold change
- Z.LYZ.NS (ISC-enriched organoids [1]; [13]): −0.232
- Dose.FC.LYZ.NS (ISC-enriched organoids [1]; Dose 2.00 uM, primary screen): −0.153 log 2 fold change
- Z.LYZ.NS (ISC-enriched organoids [1]; [14]): −1.329
- Dose.FC.LYZ.NS (ISC-enriched organoids [1]; Dose 10.00 uM, primary screen): −0.217 log 2 fold change
- Z.LYZ.NS (ISC-enriched organoids [1]; [15]): −1.891
- Dose.FC.LYZ.S (ISC-enriched organoids [2]; Dose 0.08 uM): −0.034 log 2 fold change
- Dose.FC.LYZ.S (ISC-enriched organoids [2]; Dose 0.40 uM): −0.042 log 2 fold change
- Dose.FC.LYZ.S (ISC-enriched organoids [2]; Dose 2.00 uM): −0.285 log 2 fold change
- Dose.FC.LYZ.S (ISC-enriched organoids [2]; Dose 10.00 uM): −0.320 log 2 fold change
- Dose.FC.CTG (ISC-enriched organoids [3]; Dose 0.08 uM, primary screen): 0.295 log 2 fold change
- Z.CTG (ISC-enriched organoids [3]; [12]): 0.706
- Dose.FC.CTG (ISC-enriched organoids [3]; Dose 0.40 uM, primary screen): 0.212 log 2 fold change
- Z.CTG (ISC-enriched organoids [3]; [13]): 0.506
- Dose.FC.CTG (ISC-enriched organoids [3]; Dose 2.00 uM, primary screen): −0.537 log 2 fold change
- Z.CTG (ISC-enriched organoids [3]; [14]): −1.283
- Dose.FC.CTG (ISC-enriched organoids [3]; Dose 10.00 uM, primary screen): −1.003 log 2 fold change
- Z.CTG (ISC-enriched organoids [3]; [15]): −2.395

SMILES: CCc1c2c(nc3ccc(OC(=O)N4CCC(N5CCCCC5)CC4)cc13)-c1cc3c(c(=O)n1C2)COC(=O)[C@]3(O)CC [Irinotecan HCl Trihydrate]
- SSMD.LYZ.NS (ISC-enriched organoids [1]; [16]): −0.182
- SSMD.LYZ.NS (ISC-enriched organoids [1]; [17]): −0.831
- SSMD.LYZ.NS (ISC-enriched organoids [1]; [18]): −1.832
- SSMD.LYZ.NS (ISC-enriched organoids [1]; [19]): −2.032
- Z.LYZ.S (ISC-enriched organoids [2]; [20]): −0.261
- Z.LYZ.S (ISC-enriched organoids [2]; [21]): −1.020
- Z.LYZ.S (ISC-enriched organoids [2]; [22]): −1.895
- Z.LYZ.S (ISC-enriched organoids [2]; [23]): −2.375
- SSMD.LYZ.S (ISC-enriched organoids [2]; [20]): −0.311
- SSMD.LYZ.S (ISC-enriched organoids [2]; [21]): −0.747
- SSMD.LYZ.S (ISC-enriched organoids [2]; [22]): −1.550
- SSMD.LYZ.S (ISC-enriched organoids [2]; [23]): −1.941
- Z.CTG (ISC-enriched organoids [3]; [24]): −0.199
- Z.CTG (ISC-enriched organoids [3]; [25]): −0.491
- Z.CTG (ISC-enriched organoids [3]; [26]): −0.758
- Z.CTG (ISC-enriched organoids [3]; [27]): −1.404
- SSMD.CTG (ISC-enriched organoids [3]; [16]): −0.305
- SSMD.CTG (ISC-enriched organoids [3]; [17]): −0.694
- SSMD.CTG (ISC-enriched organoids [3]; [18]): −1.060
- SSMD.CTG (ISC-enriched organoids [3]; [19]): −1.809

SMILES: Cc1cnc(NC(=O)Nc2cc(Br)c(C)cc2OC[C@@H]2CNCCO2)cn1 [LY2603618]
- Dose.FC.LYZ.NS (ISC-enriched organoids [1]; Dose 0.08 uM, primary screen): −0.005 log 2 fold change
- Z.LYZ.NS (ISC-enriched organoids [1]; [24]): −0.046
- Dose.FC.LYZ.NS (ISC-enriched organoids [1]; Dose 0.40 uM, primary screen): −0.091 log 2 fold change
- Z.LYZ.NS (ISC-enriched organoids [1]; [25]): −0.791
- Dose.FC.LYZ.NS (ISC-enriched organoids [1]; Dose 2.00 uM, primary screen): −0.193 log 2 fold change
- Z.LYZ.NS (ISC-enriched organoids [1]; [26]): −1.685
- Dose.FC.LYZ.NS (ISC-enriched organoids [1]; Dose 10.00 uM, primary screen): −0.233 log 2 fold change
- Z.LYZ.NS (ISC-enriched organoids [1]; [27]): −2.026
- SSMD.LYZ.NS (ISC-enriched organoids [1]; [16]): −0.044
- SSMD.LYZ.NS (ISC-enriched organoids [1]; [17]): −0.697
- SSMD.LYZ.NS (ISC-enriched organoids [1]; [18]): −1.609
- SSMD.LYZ.NS (ISC-enriched organoids [1]; [19]): −1.826
- Dose.FC.LYZ.S (ISC-enriched organoids [2]; Dose 0.08 uM): 0.009 log 2 fold change
- Dose.FC.LYZ.S (ISC-enriched organoids [2]; Dose 0.40 uM): −0.147 log 2 fold change
- Dose.FC.LYZ.S (ISC-enriched organoids [2]; Dose 2.00 uM): −0.269 log 2 fold change
- Dose.FC.LYZ.S (ISC-enriched organoids [2]; Dose 10.00 uM): −0.356 log 2 fold change
- Z.LYZ.S (ISC-enriched organoids [2]; [20]): 0.056
- Z.LYZ.S (ISC-enriched organoids [2]; [21]): −0.953
- Z.LYZ.S (ISC-enriched organoids [2]; [22]): −1.737
- Z.LYZ.S (ISC-enriched organoids [2]; [23]): −2.300
- SSMD.LYZ.S (ISC-enriched organoids [2]; [20]): 0.065
- SSMD.LYZ.S (ISC-enriched organoids [2]; [21]): −0.885
- SSMD.LYZ.S (ISC-enriched organoids [2]; [22]): −1.421
- SSMD.LYZ.S (ISC-enriched organoids [2]; [23]): −1.890
- Dose.FC.CTG (ISC-enriched organoids [3]; Dose 0.08 uM, primary screen): −0.004 log 2 fold change
- Z.CTG (ISC-enriched organoids [3]; [24]): −0.010
- Dose.FC.CTG (ISC-enriched organoids [3]; Dose 0.40 uM, primary screen): −0.238 log 2 fold change
- Z.CTG (ISC-enriched organoids [3]; [25]): −0.567
- Dose.FC.CTG (ISC-enriched organoids [3]; Dose 2.00 uM, primary screen): −0.396 log 2 fold change
- Z.CTG (ISC-enriched organoids [3]; [26]): −0.946
- Dose.FC.CTG (ISC-enriched organoids [3]; Dose 10.00 uM, primary screen): −0.983 log 2 fold change
- Z.CTG (ISC-enriched organoids [3]; [27]): −2.347
- SSMD.CTG (ISC-enriched organoids [3]; [16]): −0.013
- SSMD.CTG (ISC-enriched organoids [3]; [17]): −0.880
- SSMD.CTG (ISC-enriched organoids [3]; [18]): −1.281
- SSMD.CTG (ISC-enriched organoids [3]; [19]): −2.490

SMILES: C=CCn1c(=O)c2cnc(Nc3ccc(N4CCN(C)CC4)cc3)nc2n1-c1cccc(C(C)(C)O)n1 [MK-1775]
- SSMD.LYZ.NS (ISC-enriched organoids [1]; [16]): 0.317
- SSMD.LYZ.NS (ISC-enriched organoids [1]; [17]): −1.150
- SSMD.LYZ.NS (ISC-enriched organoids [1]; [18]): −1.545
- SSMD.LYZ.NS (ISC-enriched organoids [1]; [19]): −0.993
- Z.LYZ.S (ISC-enriched organoids [2]; [20]): 0.424
- Z.LYZ.S (ISC-enriched organoids [2]; [21]): −1.404
- Z.LYZ.S (ISC-enriched organoids [2]; [22]): −1.345
- Z.LYZ.S (ISC-enriched organoids [2]; [23]): −1.643
- SSMD.LYZ.S (ISC-enriched organoids [2]; [20]): 0.440
- SSMD.LYZ.S (ISC-enriched organoids [2]; [21]): −1.378
- SSMD.LYZ.S (ISC-enriched organoids [2]; [22]): −1.357
- SSMD.LYZ.S (ISC-enriched organoids [2]; [23]): −1.331
- Z.CTG (ISC-enriched organoids [3]; [12]): 0.393
- Z.CTG (ISC-enriched organoids [3]; [13]): −1.074
- Z.CTG (ISC-enriched organoids [3]; [14]): −1.919
- Z.CTG (ISC-enriched organoids [3]; [15]): −2.451
- SSMD.CTG (ISC-enriched organoids [3]; [16]): 0.536
- SSMD.CTG (ISC-enriched organoids [3]; [17]): −1.242
- SSMD.CTG (ISC-enriched organoids [3]; [18]): −1.697
- SSMD.CTG (ISC-enriched organoids [3]; [19]): −1.818
